Experimental data reported in patent US20110201634A1, “DIHYDROPYRIDIMIDINONE COMPOUNDS FOR THE TREATMENT OF CARDIOVASCULAR DISEASES AND PROCESS FOR PREPARING THE SAME” (DELHI UNIVERSITY, priority 2008, published 2011).

Experiments:
[1] = system: platelets (ADP-induced platelet aggregation); assay: ADP-induced platelet aggregation, in vitro (platelet rich plasma); format: cell-based; conditions: test compounds equimolar (40 μM); ADP 15 μM
Description: Preparation of Platelet Rich Plasma for the IN VITRO Studies (7)

[2] = system: intracellular nitric oxide level; assay: Enhancement of intracellular nitric oxide; format: cell-based; conditions: equimolar (40 μM)
[3] = system: TAase; assay: TAase activity; format: biochemical
[4] = system: platelets (ADP-induced platelet aggregation); assay: ADP-induced platelet aggregation, ex vivo after administration by gavage; conditions: po, suspended in water, sonicated, given by gavage, equimolar dose (40 μM), ADP 15 μM
Description: C. Preparation of Platelet Rich Plasma for the EX VIVO Studies

Compound	ADP-induced Platelet aggregation (% inhibition) IN VITRO [1]	Enhancement of Nitric Oxide (folds) [2]	TAase Activity (Units) [3]	inhibition at 40 µM [4] [%]
COC(=O)C(c1ccccc1Cl)N1CCc2sccc2C1 (centres unmarked)	Nil	Nil	Nil	65
CC(=O)Oc1ccccc1C(=O)O	Nil	Nil	Nil	55
